Reference: patent US10752595B2, “Crystalline forms of a bromodomain and extraterminal protein inhibitor drug, processes for preparation thereof, and use thereof” (Crystal Pharmaceutical (Suzhou) Co., Ltd., priority 2016, dated 2020)
In brackets after ≈: the same amount, converted by molar mass. Entries after “also recorded” stand apart in the source; their conditions may differ.

Tests used:
Assay type in all cases: physicochemical
[1] = Solubility study: saturated solutions in SGF and FeSSIF, concentration by HPLC; conditions: for Solubility FeSSIF: FeSSIF (fed state simulated intestinal fluids, pH=5.0)
Description: High Performance Liquid Chromatography (HPLC) data in the present disclosure were collected from an Agilent 1260 with Diode Array Detector (DAD). The HPLC method parameters for purity test in the present disclosure are as follows: • 1. Column: Waters XBridge C18 150×4.6 mm, 5 μm • 2. Mobile Phase: A: 0.1% TFA in H2O • B: 0.1% TFA in Acetonitrile
The prepared apabetalone Form CS2 was suspended into SGF (simulated gastric fluids) and FeSSIF (fed state simulated intestinal fluids, pH=5.0) to obtain saturated solutions. After being equilibrated for 1 h and 24 h, concentrations of the saturated solutions were measured by HPLC.
The prepared Form CS8 was suspended into SGF (simulated gastric fluids) and FeSSIF (fed state simulated intestinal fluids, pH=5.0) to obtain saturated solutions. After being equilibrated for 1 h, concentrations of the saturated solutions were measured by HPLC.
The prepared Form CS13 was suspended into SGF (simulated gastric fluids) and FeSSIF (fed state simulated intestinal fluids, pH=5.0) to obtain saturated solutions. After being equilibrated for 1 h, 4 h and 24 h, concentrations of the saturated solutions were measured by HPLC.
The prepared apabetalone Form CS20 was suspended into SGF (simulated gastric fluids) and FeSSIF (fed state simulated intestinal fluids, pH=5.0) to obtain saturated solutions. After being equilibrated for 1 h, 4 h and 24 h, concentrations of the saturated solutions were measured by HPLC.
The prepared solid of apabetalone Form CS1 was suspended into SGF (simulated gastric fluids) and FeSSIF (fed state simulated intestinal fluids, pH=5.0) to obtain saturated solutions. After being equilibrated for 1 h, 4 h and 24 h, concentrations of the saturated solutions were measured by HPLC.
The prepared solid of apabetalone Form CS7 was suspended into SGF (simulated gastric fluids) and FeSSIF (fed state simulated intestinal fluids, pH=5.0) to obtain saturated solutions. After being equilibrated for 1 h, 4 h and 24 h, concentrations of the saturated solutions were measured by HPLC.
The prepared solid of apabetalone Form CS9 was suspended into SGF (simulated gastric fluids) and FeSSIF (fed state simulated intestinal fluids, pH=5.0) to obtain saturated solutions. After being equilibrated for 1 h, 4 h and 24 h, concentrations of the saturated solutions were measured by HPLC.
The prepared solid of apabetalone Form CS11 was suspended into SGF (simulated gastric fluids) and FeSSIF (fed state simulated intestinal fluids, pH=5.0) to obtain saturated solutions. After being equilibrated for 1 h, 4 h and 24 h, concentrations of the saturated solutions were measured by HPLC.
The prepared solid of apabetalone Form CS4 was suspended into SGF (simulated gastric fluids) and FeSSIF (fed state simulated intestinal fluids, pH=5.0) to obtain saturated solutions. After being equilibrated for 1 h, 4 h and 24 h, concentrations of the saturated solutions were measured by HPLC.

[2] = Hygroscopicity by dynamic vapor sorption (DVS); conditions: for Hygroscopicity class: Chinese Pharmacopoeia 2015 criteria, 80% RH; for Hygroscopicity class / Weight Gain under 80% Relative Humidity: 25° C.; for Weight Gain under 80% Relative Humidity: DVS, about 10 mg of sample; for Form change after DVS test (XRPD): XRPD before and after DVS test
Procedure: Dynamic Vapor Sorption (DVS) was measured via a SMS (Surface Measurement Systems Ltd.) intrinsic DVS instrument. Its control software is DVS—Intrinsic control software, and its analysis software is DVS—Intrinsic Analysis software. Typical Parameters for DVS test are as follows: • Temperature: 25° C. • Gas and flow rate: N2, 200 mL/min • dm/dt: 0.002%/min • RH range: 0% RH to 95% RH Dynamic vapor sorption (DVS) was applied to test hygroscopicity of Form CS8 in the present disclosure with about 10 mg of sample. […] Dynamic vapor sorption (DVS) was applied to test hygroscopicity of Form CS1 of the present disclosure with about 10 mg of sample. […] Dynamic vapor sorption (DVS) was applied to test hygroscopicity of Form CS7 of the present disclosure with about 10 mg of samples. Dynamic vapor sorption (DVS) was applied to test hygroscopicity of Form CS9 of the present disclosure with about 10 mg of sample. […] Dynamic vapor sorption (DVS) was applied to test hygroscopicity of Form CS4 of the present disclosure with about 10 mg of sample.

[3] = Stability study: open-dish storage in constant temperature and humidity chambers, XRPD and purity check; conditions: for Form change and purity decrease after storage: open dish
Procedure: Form CS8 was placed in a constant temperature and humidity chamber at 25° C./60% RH for 2 weeks in open dish. Crystalline form of the sample were tested by XRPD and impurity of the sample were checked. […] Crystalline form of the sample were tested by XRPD and impurity of the sample were checked. […] Two samples of apabetalone Form CS1 were placed in constant temperature and humidity chambers at 25° C./60% RH and 40° C./75% RH for 10 months in open dishes. The samples were characterized by XRPD and chemical impurity. […] Three samples of apabetalone Form CS7 were placed in constant temperature and humidity chambers at 25° C./60% RH and 40° C./75% RH for 4 weeks and 80° C. for 1 day in open dishes. Crystalline form of the sample were tested by XRPD and impurity of the sample were checked. […] Two samples of apabetalone Form CS9 were placed in constant temperature and humidity chambers at 25° C./60% RH and 40° C./75% RH for 10 months in open dishes. Crystalline form of the sample were tested by XRPD and impurity of the sample were tested to check the stability of Form CS9. […] Two samples of apabetalone Form CS11 were placed in constant temperature and humidity chambers at 25° C./60% RH and 40° C./75% RH for 6 weeks in open dishes. Crystalline form of the sample were tested by XRPD and impurity of the sample were tested to check the stability of Form CS11. […] Two samples of apabetalone Form CS4 were placed in open dishes in constant temperature and humidity chambers at 25° C./60% RH and 40° C./75% RH for 10 months. Crystalline form of the sample were tested by XRPD and impurity of the sample were tested to check the stability of Form CS4.

[4] = SGF (simulated gastric fluids), equilibrated 1 h
[5] = SGF (simulated gastric fluids), equilibrated 4 h
[6] = SGF (simulated gastric fluids), equilibrated 24 h

SMILES	Solubility FeSSIF ([1]; equilibrated 1 h) [mg/mL]	Solubility FeSSIF ([1]; equilibrated 4 h) [mg/mL]	Solubility FeSSIF ([1]; equilibrated 24 h) [mg/mL]	Solubility SGF [1, 4] [mg/mL]	Solubility SGF [1, 5] [mg/mL]	Solubility SGF [1, 6] [mg/mL]	Hygroscopicity class [2]	Weight Gain under 80% Relative Humidity [2] [%]	Form change after DVS test (XRPD) [2]	Time the form is stable when stored ([3]; 25° C./60% RH)	Time the form is stable when stored ([3]; 40° C./75% RH)	other results
COc1cc(OC)c2c(=O)[nH]c(-c3cc(C)c(OCCO)c(C)c3)nc2c1 [Form CS9, 2-[4-(2-hydroxyethoxy)-3,5-dimethylphenyl]-5,7-dimethoxyquinazolin-4(3H)-one]	0.17 (≈ 459 µM)	0.13 (≈ 351 µM)	0.20 (≈ 540 µM)	0.30 (≈ 810 µM)	0.31 (≈ 837 µM)	0.37 (≈ 999 µM)	almost non hygroscopic	0.18	doesn't change; also recorded: No form change	at least 10 months	at least 10 months	Form change and purity decrease after storage ([3]; 25° C./60% RH, 10 months): No form change and obvious purity decrease; Form change and purity decrease after storage ([3]; 40° C./75% RH, 10 months): No form change and obvious purity decrease
COc1cc(OC)c2c(=O)[nH]c(-c3cc(C)c(OCCO)c(C)c3)nc2c1 [Form CS7, 2-[4-(2-hydroxyethoxy)-3,5-dimethylphenyl]-5,7-dimethoxyquinazolin-4(3H)-one]	0.19 (≈ 513 µM)	0.17 (≈ 459 µM)	0.29 (≈ 783 µM)	0.38 (≈ 1030 µM)	0.42 (≈ 1130 µM)	0.58 (≈ 1570 µM)	slightly hygroscopic (Increase in mass is less than 2 percent and equal to or greater than 0.2 percent)	0.79	No form change	at least 4 weeks	at least 4 weeks	Form change and purity decrease after storage ([3]; 25° C./60% RH, 4 weeks): No form change and obvious purity decrease; Form change and purity decrease after storage ([3]; 40° C./75% RH, 4 weeks): No form change and obvious purity decrease; Form change and purity decrease after storage ([3]; 80° C., 1 day): No form change and obvious purity decrease
COc1cc(OC)c2c(=O)[nH]c(-c3cc(C)c(OCCO)c(C)c3)nc2c1 [Form CS20, 2-[4-(2-hydroxyethoxy)-3,5-dimethylphenyl]-5,7-dimethoxyquinazolin-4(3H)-one]	0.19 (≈ 513 µM)	0.16 (≈ 432 µM)	0.22 (≈ 594 µM)	0.44 (≈ 1190 µM)	0.41 (≈ 1110 µM)	0.51 (≈ 1380 µM)				at least 2 weeks	at least 2 weeks	Form change and purity decrease after storage ([3]; 25° C./60% RH, 2 weeks): No form change and obvious purity decrease; Form change and purity decrease after storage ([3]; 40° C./75% RH, 2 weeks): No form change and obvious purity decrease
COc1cc(OC)c2c(=O)[nH]c(-c3cc(C)c(OCCO)c(C)c3)nc2c1 [Form CS8, 2-[4-(2-hydroxyethoxy)-3,5-dimethylphenyl]-5,7-dimethoxyquinazolin-4(3H)-one]	0.28 (≈ 756 µM)			0.43 (≈ 1160 µM)			slightly hygroscopic (Increase in mass is less than 2 percent and equal to or greater than 0.2 percent)	0.34	No form change	at least 2 weeks		Form change and purity decrease after storage ([3]; 25° C./60% RH, 2 weeks): No obvious form change and purity decrease
COc1cc(OC)c2c(=O)[nH]c(-c3cc(C)c(OCCO)c(C)c3)nc2c1 [Form CS13, 2-[4-(2-hydroxyethoxy)-3,5-dimethylphenyl]-5,7-dimethoxyquinazolin-4(3H)-one]	0.13 (≈ 351 µM)	0.14 (≈ 378 µM)	0.14 (≈ 378 µM)	0.35 (≈ 945 µM)	0.31 (≈ 837 µM)	0.33 (≈ 891 µM)						
COc1cc(OC)c2c(=O)[nH]c(-c3cc(C)c(OCCO)c(C)c3)nc2c1 [Form CS11, 2-[4-(2-hydroxyethoxy)-3,5-dimethylphenyl]-5,7-dimethoxyquinazolin-4(3H)-one]				0.71 (≈ 1920 µM)	0.65 (≈ 1750 µM)	0.65 (≈ 1750 µM)				at least 6 weeks	at least 6 weeks	Form change and purity decrease after storage ([3]; 25° C./60% RH, 6 weeks): No form change and obvious purity decrease; Form change and purity decrease after storage ([3]; 40° C./75% RH, 6 weeks): No form change and obvious purity decrease
COc1cc(OC)c2c(=O)[nH]c(-c3cc(C)c(OCCO)c(C)c3)nc2c1 [Form CS2, 2-[4-(2-hydroxyethoxy)-3,5-dimethylphenyl]-5,7-dimethoxyquinazolin-4(3H)-one]	0.15 (≈ 405 µM)		0.24 (≈ 648 µM)	0.49 (≈ 1320 µM)								solubility at 24 h ([1]; SGF (simulated gastric fluids), simulated gastric fluid, thermodynamic from solid, equilibrated 24 h): 610 µg/mL (≈ 1650 µM)
